# Data taken from US9850527B2, “Modified stem-loop oligonucleotide mediated reverse transcription and base-spacing constrained quantitative PCR” (National University of Singapore, priority 2010, dated 2017).
# B1: GDNF: GDNF used to stimulate U251 glioblastoma cells at 100 ng/ml (protein, UniProt P39905 78-211, looked up)
# Glial cell line-derived …: SPDKQMAVLPRRERNRQAAAANPENSRGKGRRGQRGKNRGCVLTAIHLNVTDLGLGYETKEELIFRYCSGSCDAAETTYDKILKNLSRNRRLVSDKVGQACCRPIAFDDDLSFLDDNLVYHILRKHSAKRCGCI
# Key:
# ERK1/2 MAPK = assay: GDNF-induced ERK1/2 MAPK signaling activation in U251 cells (Western blot, phospho ERK1/2); type: cell-based, human; settings: GDNF 100 ng/ml
# Protocol: FIG. 18. GDNF-induced signaling activation in U251 human glioblastoma cells. Control and GDNF stimulated U251 cells were lysed with 2% SDS. Total protein lysates were quantified using microBCA protein assay (Pierce, Rockford, Ill., USA). Total protein (10 μg) were separated by SDS-PAGE and probed with antibodies against phospho ERK1/2 (Cell […] Technologies, Danvers, Mass., USA). The blots were striped in Western Blot Stripping Buffer (Pierce) and re-probed with total ERK1/2 (Cell Signaling Technologies) to verify equal loading. Chemiluminescence was imaged and analyzed by ChemiDoc system (Bio-Rad). A) Time-course of ERK1/2 MAPK activation by GDNF (100 ng/ml) in U251 cells. B) GDNF-induced ERK1/2 MAPK activation was inhibited by pre-treatment of MEK inhibitor U0126 (5 μM).
# Human glioblastoma cell lines A172 and U251 were cultured in DMEM supplemented with 10% fetal bovine serum (FBS, Sigma) and antibiotics (100 U/ml penicillin and 100 μg/ml streptomycin) in a 5% CO2 humidified incubator at 37° C. U251 cells were seeded at 200,000 cells per well in E-well plate for 24 h and incubated with FBS-free DMEM medium for 12-16 h. The cells were then stimulated with 100 ng/ml of GDNF for defined periods of time in DMEM. […] The extracted RNA samples were then quantified using spectrophotometry and the integrity examined by denaturing RNA gel electrophoresis.
# [1] = tested on: miRNA expression in U251 cells; assay: GDNF-regulated miRNA expression in U251 cells quantified by hemi-nested real-time RT-PCR; type: cell-based, human
# Protocol: Human glioblastoma cell lines A172 and U251 were cultured in DMEM supplemented with 10% fetal bovine serum (FBS, Sigma) and antibiotics (100 U/ml penicillin and 100 μg/ml streptomycin) in a 5% CO2 humidified incubator at 37° C. U251 cells were seeded at 200,000 cells per well in E-well plate for 24 h and incubated with FBS-free DMEM medium for 12-16 h. The cells were then stimulated with 100 ng/ml of GDNF for defined periods of time in DMEM. For MEK inhibitor studies, the cells were pre-incubated with 5 μM U0126 (Promega, Madison, Wis., USA) for 45 min in DMEM prior to GDNF stimulations. Total RNA from untreated or GDNF treated glioblastoma cells was isolated using TRIzol reagent (Invitrogen) in the presence of 20 μg/ml linear acrylamide (Ambion) according to the manufacturer's instructions. The extracted RNA samples were then quantified using spectrophotometry and the integrity examined by denaturing RNA gel electrophoresis. […]
# Real-time PCR was performed on the CFX96 system (Bio-Rad, Hercules, Calif., USA) using SYBR GREEN™ I. Real-time PCR for precursor miRNA and U6 snRNA was performed according to previous reports (Schmittgen et al., 2004; Jiang et al., 2005). […] The threshold cycles (Ct) were calculated automatically using the CFX manager software (Bio-Rad). […]
# Taq polymerase = Taq polymerase (Thermus aquaticus, UniProt P19821); settings: cited from earlier work
# Taq polymerase, sequence (P19821 whole entry): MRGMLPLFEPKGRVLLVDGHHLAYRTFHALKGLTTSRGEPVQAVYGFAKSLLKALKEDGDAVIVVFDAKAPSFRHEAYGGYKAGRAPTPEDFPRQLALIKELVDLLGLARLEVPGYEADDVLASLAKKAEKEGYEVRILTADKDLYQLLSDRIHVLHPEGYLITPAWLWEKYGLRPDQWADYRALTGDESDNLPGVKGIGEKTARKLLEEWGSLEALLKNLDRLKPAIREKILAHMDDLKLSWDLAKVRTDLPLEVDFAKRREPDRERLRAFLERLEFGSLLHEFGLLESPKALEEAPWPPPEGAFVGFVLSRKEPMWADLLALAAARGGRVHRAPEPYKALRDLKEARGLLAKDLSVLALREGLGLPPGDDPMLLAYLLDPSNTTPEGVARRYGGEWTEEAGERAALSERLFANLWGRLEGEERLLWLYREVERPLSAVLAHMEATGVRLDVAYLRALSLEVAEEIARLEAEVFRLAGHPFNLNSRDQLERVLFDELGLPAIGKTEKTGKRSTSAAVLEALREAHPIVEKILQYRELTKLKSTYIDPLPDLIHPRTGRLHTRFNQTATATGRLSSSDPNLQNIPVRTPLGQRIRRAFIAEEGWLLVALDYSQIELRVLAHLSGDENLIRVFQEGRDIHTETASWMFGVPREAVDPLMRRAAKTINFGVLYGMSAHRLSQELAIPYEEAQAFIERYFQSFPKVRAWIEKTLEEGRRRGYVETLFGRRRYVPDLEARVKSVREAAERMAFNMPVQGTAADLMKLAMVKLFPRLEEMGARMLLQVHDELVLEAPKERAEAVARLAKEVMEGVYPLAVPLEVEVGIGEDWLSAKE
molecule,measurement,setting,value
N#CC(=C(/N)Sc1ccccc1N)/C(C#N)=C(\N)Sc1ccccc1N [U0126],inhibition of GDNF-induced ERK1/2 MAPK activation,"ERK1/2 MAPK; U251 cells, pre-treatment with U0126 5 μM",inhibited
same,inhibition of GDNF-induced up-regulation of the 6 miRNAs,"[1]; pretreatment with U0126, 24-plex assay",effectively inhibited
"Cc1cc([C@H]2C[C@H](O)[C@@H](COP(=O)(O)OP(=O)(O)OP(=O)(O)O)O2)c[nH]c1=O [d*TTP, 5-(2′-deoxy-b-D-ribofuranosyl)-3-methyl-2-pyridone-5′-triphosphate]",inhibition in PCR catalysed by Taq polymerase,Taq polymerase,strong inhibition
"Nc1ccc([C@H]2C[C@H](O)[C@@H](COP(=O)(O)OP(=O)(O)OP(=O)(O)O)O2)cn1 [d*CTP, 2-amino-5-(2′-deoxy-b-D-ribofuranosyl)pyridine-5′-triphosphate]",inhibition in PCR catalysed by Taq polymerase,Taq polymerase,strong inhibition
B1,activation of ERK1/2 MAPK,"ERK1/2 MAPK; U251 human glioblastoma cells, time-course",induced time-dependent activation of ERK1/2 MAPK
same,"regulation of miRNA expression (miR-7, -21, -218, let-7f, -7g, -7i), fold change to non-stimulated control","[1]; GDNF 100 ng/ml, temporal regulation",timedependent up-regulation
